Assay results as given in patent US11965039B2, “Compstatin analogues and their medical uses” (priority 2018, dated 2024).
Starred links: 1 amine or outer side, 2 acyl side, 3 side chain; linkers in the order of their positions; H or OH if unused. Positions of bridges follow the written chain, without caps; N, C: chain ends. Non-standard residues stand in square brackets, D forms with d. Residues, ends and D or L forms follow the SMILES beside them. Groups on a side chain read outwards from the residue. *: point of attachment. Trp(1-Me) = Cn1cc(C[C@H](N)C(=O)O)c2ccccc21; C18 diacid = O=C(O)CCCCCCCCCCCCCCCCC(=O)*; γGlu = O=C(O)[C@H](CCC(=O)[*:2])N[*:1]; 2Nal = N[C@@H](Cc1ccc2ccccc2c1)C(=O)O; Sar = CNCC(=O)O

How the values were obtained:
[1] = Solubility test at 10 mg/mL (visual inspection and light scattering); format: physicochemical; details: for Solubility, Condition 1: Acetate pH 4; for Solubility, Condition 2: Acetate pH 5; for Solubility, Condition 3: Phosphate pH 6; for Solubility, Condition 4: Phosphate pH 7; for Solubility, Condition 5: Phosphate pH 7.5
[2] = test system: classical complement pathway; assay: In vitro haemolysis assay (inhibition of classical complement pathway); format: cell-based, human; details: human serum, sensitized sheep red blood cells; Table 3, given as upper bounds; read-out: IC50, inhibition of hemolysis
Outline: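 Compound dilutions preincubated 15 min at room temperature with diluted human serum (titrated per batch for 70-90% maximal haemolysis), then antibody-sensitized sheep RBC (10^7/well) added for 30 min at 37 °C in Tris/casein buffer, pH 7.4. Stopped with EDTA; haemolysis read at 405 nm; IC50 by 4PL fit.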

Row | SMILES | Solubility, Condition 1 [1] | Solubility, Condition 2 [1] | Solubility, Condition 3 [1] | Solubility, Condition 4 [1] | Solubility, Condition 5 [1] | IC50 [2]
1 | CC[C@H](C)[C@@H]1NC(=O)[C@@H](NC(=O)[C@H](Cc2ccc(O)cc2)NC(C)=O)CSSC[C@@H](C(=O)N[C@H](C(=O)NCC(=O)N[C@@H](C)C(=O)N[C@@H](CCC(=O)O)C(=O)N[C@@H](CO)C(N)=O)[C@@H](C)O)NC(=O)[C@H](CCCNC(=N)N)NC(=O)[C@H](Cc2c[nH]cn2)NC(=O)[C@H](CCC(=O)O)NC(=O)CNC(=O)[C@H](Cc2c[nH]c3ccccc23)NC(=O)[C@H](CC(=O)O)NC(=O)[C@H](CCC(N)=O)NC(=O)[C@H](Cc2cn(C)c3ccccc23)NC1=O [Compound 62] (Ac-YCI[Trp(1-Me)]QDWGEHRCTGAES-NH2; disulfide 2-12) | − (“−” denotes lack of solubility at the given condition, as UV absorbance at 340 nm exceeds 0.1 AU and/or it is visibly turbid or contains particles) | − (“−” denotes lack of solubility at the given condition, as UV absorbance at 340 nm exceeds 0.1 AU and/or it is visibly turbid or contains particles) | + (“+” denotes solubility at the given condition, as determined by UV absorbance being less than 0.1 AU at 340 nm and the sample being clear when manually inspected) | + (“+” denotes solubility at the given condition, as determined by UV absorbance being less than 0.1 AU at 340 nm and the sample being clear when manually inspected) | + (“+” denotes solubility at the given condition, as determined by UV absorbance being less than 0.1 AU at 340 nm and the sample being clear when manually inspected) | < 100 nM
2 | CC[C@H](C)[C@@H]1NC(=O)[C@@H](NC(=O)[C@H](Cc2ccccc2)NC(=O)[C@H](C)NC(=O)[C@H](CO)NC(=O)CNC(=O)[C@H](CCC(=O)O)NC(C)=O)CSSC[C@@H](C(=O)N[C@H](C(=O)N[C@@H](CCC(=O)O)C(N)=O)[C@@H](C)O)NC(=O)[C@H](CCCNC(=N)N)NC(=O)[C@H](Cc2c[nH]cn2)NC(=O)[C@H](CCC(=O)O)NC(=O)CNC(=O)[C@H](Cc2c[nH]c3ccccc23)NC(=O)[C@H](CC(=O)O)NC(=O)[C@H](CCC(N)=O)NC(=O)[C@H](Cc2ccc3ccccc3c2)NC1=O [Compound 60] (Ac-EGSAFCI[2Nal]QDWGEHRCTE-NH2; disulfide 6-16) | − (“−” denotes lack of solubility at the given condition, as UV absorbance at 340 nm exceeds 0.1 AU and/or it is visibly turbid or contains particles) | − (“−” denotes lack of solubility at the given condition, as UV absorbance at 340 nm exceeds 0.1 AU and/or it is visibly turbid or contains particles) | + (“+” denotes solubility at the given condition, as determined by UV absorbance being less than 0.1 AU at 340 nm and the sample being clear when manually inspected) | + (“+” denotes solubility at the given condition, as determined by UV absorbance being less than 0.1 AU at 340 nm and the sample being clear when manually inspected) | + (“+” denotes solubility at the given condition, as determined by UV absorbance being less than 0.1 AU at 340 nm and the sample being clear when manually inspected) | < 100 nM
3 | CC[C@H](C)[C@H](NC(=O)[C@H](C)NC(=O)[C@H](CO)NC(=O)CNC(=O)[C@H](CCC(=O)O)NC(C)=O)C(=O)N[C@H]1CSSC[C@@H](C(=O)N[C@H](C(=O)N[C@@H](CCC(=O)O)C(N)=O)[C@@H](C)O)NC(=O)[C@H](CCCNC(=N)N)NC(=O)[C@H](Cc2c[nH]cn2)NC(=O)[C@H](CCC(=O)O)NC(=O)CNC(=O)[C@H](Cc2c[nH]c3ccccc23)NC(=O)[C@H](CC(=O)O)NC(=O)[C@H](CCC(N)=O)NC(=O)[C@H](Cc2c[nH]c3ccccc23)NC(=O)[C@H]([C@@H](C)CC)NC1=O [Compound 55] (Ac-EGSAICIWQDWGEHRCTE-NH2; disulfide 6-16) | − (“−” denotes lack of solubility at the given condition, as UV absorbance at 340 nm exceeds 0.1 AU and/or it is visibly turbid or contains particles) | − (“−” denotes lack of solubility at the given condition, as UV absorbance at 340 nm exceeds 0.1 AU and/or it is visibly turbid or contains particles) | + (“+” denotes solubility at the given condition, as determined by UV absorbance being less than 0.1 AU at 340 nm and the sample being clear when manually inspected) | + (“+” denotes solubility at the given condition, as determined by UV absorbance being less than 0.1 AU at 340 nm and the sample being clear when manually inspected) | + (“+” denotes solubility at the given condition, as determined by UV absorbance being less than 0.1 AU at 340 nm and the sample being clear when manually inspected) | < 250 nM
4 | CC[C@H](C)[C@@H]1NC(=O)[C@@H](NC(=O)[C@H](Cc2ccc(O)cc2)NC(=O)[C@H](C)NC(=O)[C@H](CO)NC(=O)CNC(=O)[C@H](CCC(=O)O)NC(C)=O)CSSC[C@@H](C(=O)N(C)CC(=O)N[C@@H](CCC(=O)O)C(=O)NCC(=O)N[C@@H](CCC(=O)O)C(=O)N[C@@H](CCCCNC(=O)CC[C@H](NC(=O)CNC(=O)CC[C@H](NC(=O)CCCCCCCCCCCCCCCCC(=O)O)C(=O)O)C(=O)O)C(N)=O)NC(=O)[C@H](CCCNC(=N)N)NC(=O)[C@H](Cc2c[nH]cn2)NC(=O)[C@H](CCC(=O)O)NC(=O)CNC(=O)[C@H](Cc2c[nH]c3ccccc23)NC(=O)[C@H](CC(=O)O)NC(=O)[C@H](CCC(N)=O)NC(=O)[C@H](Cc2cn(C)c3ccccc23)NC1=O [Compound 109] (Ac-EGSAYCI[Trp(1-Me)]QDWGEHRC[Sar]EGEK([γGlu-Gly-γGlu-C18 diacid])-NH2; disulfide 6-16) | − (“−” denotes lack of solubility at the given condition, as UV absorbance at 340 nm exceeds 0.1 AU and/or it is visibly turbid or contains particles) | + (“+” denotes solubility at the given condition, as determined by UV absorbance being less than 0.1 AU at 340 nm and the sample being clear when manually inspected) | + (“+” denotes solubility at the given condition, as determined by UV absorbance being less than 0.1 AU at 340 nm and the sample being clear when manually inspected) | + (“+” denotes solubility at the given condition, as determined by UV absorbance being less than 0.1 AU at 340 nm and the sample being clear when manually inspected) | + (“+” denotes solubility at the given condition, as determined by UV absorbance being less than 0.1 AU at 340 nm and the sample being clear when manually inspected) | < 250 nM
5 | CC[C@H](C)[C@@H]1NC(=O)[C@@H](NC(=O)[C@H](Cc2ccccc2)NC(=O)[C@H](CCC(=O)O)NC(=O)[C@H](CO)NC(C)=O)CSSC[C@@H](C(=O)N[C@H](C(=O)N[C@@H](CCC(=O)O)C(=O)N[C@@H](C)C(N)=O)[C@@H](C)O)NC(=O)[C@H](CCCNC(=N)N)NC(=O)[C@H](Cc2c[nH]cn2)NC(=O)[C@H](CCC(=O)O)NC(=O)CN(C)C(=O)[C@H](Cc2c[nH]c3ccccc23)NC(=O)[C@H](CC(=O)O)NC(=O)[C@H](CCC(N)=O)NC(=O)[C@H](Cc2cn(C)c3ccccc23)NC1=O [Compound 77, Ac-SEFC(1)I[1-Me-Trp]QDW[Sar]EHRC(1)TEA-NH2] (Ac-SEFCI[Trp(1-Me)]QDW[Sar]EHRCTEA-NH2; disulfide 4-14) | − (“−” denotes lack of solubility at the given condition, as UV absorbance at 340 nm exceeds 0.1 AU and/or it is visibly turbid or contains particles) | − (“−” denotes lack of solubility at the given condition, as UV absorbance at 340 nm exceeds 0.1 AU and/or it is visibly turbid or contains particles) | + (“+” denotes solubility at the given condition, as determined by UV absorbance being less than 0.1 AU at 340 nm and the sample being clear when manually inspected) | + (“+” denotes solubility at the given condition, as determined by UV absorbance being less than 0.1 AU at 340 nm and the sample being clear when manually inspected) | + (“+” denotes solubility at the given condition, as determined by UV absorbance being less than 0.1 AU at 340 nm and the sample being clear when manually inspected) | < 100 nM
6 | CC[C@H](C)[C@@H]1NC(=O)[C@@H](NC(=O)[C@H](Cc2ccccc2)NC(=O)[C@H](C)NC(=O)[C@H](CO)NC(=O)CNC(=O)[C@H](CCC(=O)O)NC(C)=O)CSSC[C@@H](C(=O)N(C)CC(=O)N[C@@H](CCC(=O)O)C(N)=O)NC(=O)[C@H](CCCNC(=N)N)NC(=O)[C@H](Cc2c[nH]cn2)NC(=O)[C@H](CCC(=O)O)NC(=O)CNC(=O)[C@H](Cc2c[nH]c3ccccc23)NC(=O)[C@H](CC(=O)O)NC(=O)[C@H](CCC(N)=O)NC(=O)[C@H](Cc2c[nH]c3ccccc23)NC1=O [Compound 45] (Ac-EGSAFCIWQDWGEHRC[Sar]E-NH2; disulfide 6-16) | − (“−” denotes lack of solubility at the given condition, as UV absorbance at 340 nm exceeds 0.1 AU and/or it is visibly turbid or contains particles) | + (“+” denotes solubility at the given condition, as determined by UV absorbance being less than 0.1 AU at 340 nm and the sample being clear when manually inspected) | + (“+” denotes solubility at the given condition, as determined by UV absorbance being less than 0.1 AU at 340 nm and the sample being clear when manually inspected) | + (“+” denotes solubility at the given condition, as determined by UV absorbance being less than 0.1 AU at 340 nm and the sample being clear when manually inspected) | + (“+” denotes solubility at the given condition, as determined by UV absorbance being less than 0.1 AU at 340 nm and the sample being clear when manually inspected) | < 100 nM
